Data: ChEMBL document CHEMBL3885881, “DrugMatrix”

Species: Rattus norvegicus
Assay: DrugMatrix - Regimen: Daily Repeat
Format: toxicity, organism-based, Sprague-Dawley
Parameters: regimen Daily Repeat, gender Male, age 6-8 weeks
Conditions: in vivo, po, route oral GAVAGE, […]; for ABSOLUTE BASOPHIL / ABSOLUTE EOSINOPHIL / ABSOLUTE LYMPHOCYTE / ABSOLUTE MONOCYTE / ABSOLUTE SEGMENTED NEUTROPHIL / BASOPHIL / EOSINOPHIL / ERYTHROCYTE COUNT / HEMATOCRIT / HEMOGLOBIN / LEUKOCYTE COUNT / LYMPHOCYTE / MEAN CORPUSCULAR HEMOGLOBIN / MEAN CORPUSCULAR HEMOGLOBIN CONCENTRATION / MEAN CORPUSCULAR VOLUME / MONOCYTE / NEUTROPHIL / NUCLEATED RED BLOOD CELLS / PLATELET COUNT: tissue Blood; for ALANINE AMINOTRANSFERASE / ALBUMIN / ALKALINE PHOSPHATASE / ASPARTATE AMINOTRANSFERASE / BLOOD UREA NITROGEN / CARBON DIOXIDE / CHLORIDE / CHOLESTEROL / CREATINE PHOSPHOKINASE / CREATININE / GLUCOSE / LACTATE DEHYDROGENASE / LIPASE / PHOSPHORUS / POTASSIUM / SODIUM / TOTAL BILIRUBIN / TOTAL PROTEIN / URIC ACID: tissue Plasma
[1] = 0 mg/kg, 72 h, dose level Control, time 3 day
[2] = 0 mg/kg, dose level Control, time 7 day
[3] = 30 mg/kg, 72 h, dose level Low, time 3 day

SMILES: S=C=Nc1cccc2ccccc12 [1-NAPHTHYLISOTHIOCYANATE]
- ABSOLUTE BASOPHIL [1]: 0 CELLS/uL
- ABSOLUTE EOSINOPHIL [1]: 47.5 CELLS/uL
- ABSOLUTE LYMPHOCYTE [1]: 9600.67 CELLS/uL
- ABSOLUTE MONOCYTE [1]: 195.5 CELLS/uL
- ABSOLUTE SEGMENTED NEUTROPHIL [1]: 839.67 CELLS/uL
- BASOPHIL [1]: 0%
- EOSINOPHIL [1]: 0.5%
- ERYTHROCYTE COUNT [1]: 5.26 x10E6/uL
- HEMATOCRIT [1]: 34.48%
- HEMOGLOBIN [1]: 12.77 G/DL
- LEUKOCYTE COUNT [1]: 10.68 x10E3/uL
- LYMPHOCYTE [1]: 89.67%
- MEAN CORPUSCULAR HEMOGLOBIN [1]: 24.3 pg
- MEAN CORPUSCULAR HEMOGLOBIN CONCENTRATION [1]: 37.05 G/DL
- MEAN CORPUSCULAR VOLUME [1]: 65.62 fL
- MONOCYTE [1]: 1.83%
- NEUTROPHIL [1]: 8%
- NUCLEATED RED BLOOD CELLS [1]: 0.17 /100WBC
- PLATELET COUNT [1]: 1038.67 x10E3/uL
- ALANINE AMINOTRANSFERASE [1]: 65.17 u/L
- ALBUMIN [1]: 4.2 G/DL
- ALKALINE PHOSPHATASE [1]: 377.5 u/L
- ASPARTATE AMINOTRANSFERASE [1]: 90.5 u/L
- BLOOD UREA NITROGEN [1]: 13.5 mg/dL
- CARBON DIOXIDE [1]: 31.17 mmol/L
- CHLORIDE [1]: 98.33 MEQ/L
- CHOLESTEROL [1]: 66.33 mg/dL
- CREATINE PHOSPHOKINASE [1]: 478.83 u/L
- CREATININE [1]: 0.19 mg/dL
- GLUCOSE [1]: 155.17 mg/dL
- LACTATE DEHYDROGENASE [1]: 107.5 u/L
- LIPASE [1]: 10.33 u/L
- PHOSPHORUS [1]: 9.25 mg/dL
- POTASSIUM [1]: 5.43 MEQ/L
- SODIUM [1]: 142.05 MEQ/L
- TOTAL BILIRUBIN [1]: 0.12 mg/dL
- TOTAL PROTEIN [1]: 5.95 G/DL
- URIC ACID [1]: 0.62 mg/dL
- ABSOLUTE BASOPHIL [2]: 0 CELLS/uL
- ABSOLUTE EOSINOPHIL [2]: 43.5 CELLS/uL
- ABSOLUTE LYMPHOCYTE [2]: 9369.83 CELLS/uL
- ABSOLUTE MONOCYTE [2]: 196.17 CELLS/uL
- ABSOLUTE SEGMENTED NEUTROPHIL [2]: 723.83 CELLS/uL
- BASOPHIL [2]: 0%
- EOSINOPHIL [2]: 0.5%
- ERYTHROCYTE COUNT [2]: 5.09 x10E6/uL
- HEMATOCRIT [2]: 32.42%
- HEMOGLOBIN [2]: 13.1 G/DL
- LEUKOCYTE COUNT [2]: 10.33 x10E3/uL
- LYMPHOCYTE [2]: 90.83%
- MEAN CORPUSCULAR HEMOGLOBIN [2]: 25.75 pg
- MEAN CORPUSCULAR HEMOGLOBIN CONCENTRATION [2]: 40.43 G/DL
- MEAN CORPUSCULAR VOLUME [2]: 63.62 fL
- MONOCYTE [2]: 1.67%
- NEUTROPHIL [2]: 7%
- NUCLEATED RED BLOOD CELLS [2]: 0 /100WBC
- PLATELET COUNT [2]: 1106.5 x10E3/uL
- ALANINE AMINOTRANSFERASE [2]: 48.67 u/L
- ALBUMIN [2]: 4.13 G/DL
- ALKALINE PHOSPHATASE [2]: 275.17 u/L
- ASPARTATE AMINOTRANSFERASE [2]: 73.17 u/L
- BLOOD UREA NITROGEN [2]: 13.17 mg/dL
- CARBON DIOXIDE [2]: 27.5 mmol/L
- CHLORIDE [2]: 99.67 MEQ/L
- CHOLESTEROL [2]: 60.83 mg/dL
- CREATINE PHOSPHOKINASE [2]: 213 u/L
- CREATININE [2]: 0.2 mg/dL
- GLUCOSE [2]: 166.67 mg/dL
- LACTATE DEHYDROGENASE [2]: 94.5 u/L
- LIPASE [2]: 10.5 u/L
- PHOSPHORUS [2]: 9.98 mg/dL
- POTASSIUM [2]: 5.3 MEQ/L
- SODIUM [2]: 140.77 MEQ/L
- TOTAL BILIRUBIN [2]: 0.15 mg/dL
- TOTAL PROTEIN [2]: 5.88 G/DL
- URIC ACID [2]: 0.82 mg/dL
- ABSOLUTE BASOPHIL [3]: 0 CELLS/uL
- ABSOLUTE EOSINOPHIL [3]: 54.67 CELLS/uL
- ABSOLUTE LYMPHOCYTE [3]: 18655.83 CELLS/uL
- ABSOLUTE MONOCYTE [3]: 720.5 CELLS/uL
- ABSOLUTE SEGMENTED NEUTROPHIL [3]: 2902.33 CELLS/uL
- BASOPHIL [3]: 0%
- EOSINOPHIL [3]: 0.33%
- ERYTHROCYTE COUNT [3]: 6.41 x10E6/uL
- HEMATOCRIT [3]: 39.98%
- HEMOGLOBIN [3]: 14.27 G/DL
- LEUKOCYTE COUNT [3]: 22.33 x10E3/uL
- LYMPHOCYTE [3]: 84.17%
- MEAN CORPUSCULAR HEMOGLOBIN [3]: 22.4 pg
- MEAN CORPUSCULAR HEMOGLOBIN CONCENTRATION [3]: 35.92 G/DL
- MEAN CORPUSCULAR VOLUME [3]: 62.38 fL
- MONOCYTE [3]: 3.17%
- NEUTROPHIL [3]: 12.33%
- NUCLEATED RED BLOOD CELLS [3]: 0 /100WBC
- PLATELET COUNT [3]: 844.83 x10E3/uL
- ALANINE AMINOTRANSFERASE [3]: 264.83 u/L
- ALBUMIN [3]: 3.62 G/DL
- ALKALINE PHOSPHATASE [3]: 660.67 u/L
- ASPARTATE AMINOTRANSFERASE [3]: 415.67 u/L
- BLOOD UREA NITROGEN [3]: 12.67 mg/dL
- CARBON DIOXIDE [3]: 28.83 mmol/L
- CHLORIDE [3]: 98 MEQ/L
- CHOLESTEROL [3]: 282.33 mg/dL
- CREATINE PHOSPHOKINASE [3]: 281.83 u/L
- CREATININE [3]: 0.18 mg/dL
- GLUCOSE [3]: 117.33 mg/dL
- LACTATE DEHYDROGENASE [3]: 160.33 u/L
- LIPASE [3]: 11.33 u/L
- PHOSPHORUS [3]: 9.08 mg/dL
- POTASSIUM [3]: 6.45 MEQ/L
- SODIUM [3]: 141.7 MEQ/L
- TOTAL BILIRUBIN [3]: 3.02 mg/dL
- TOTAL PROTEIN [3]: 6.22 G/DL
- URIC ACID [3]: 0.85 mg/dL
